{"source": "patent US8709420B2", "about": "(GlaxoSmithKline Intellectual Property Limited, priority 2010, dated 2014)", "key": {"[1]": {"test_system": "RD rhabdomyosarcoma cell line", "type": "cell-based", "procedure": "(§1) Materials: The cells were cultured at 37° C. in 5% CO2 in a-MEM (Multicell; Wisent, Inc., St. Bruno, Quebec, Canada) with 10% fetal bovine serum (FBS; Life Technologies, Grand Island, N.Y.) and 1% antibiotic mixture, containing 10000 IU penicillin and 10000 μg/ml streptomycin (Multicell; Wisent, Inc., St. Bruno, Quebec, Canada). Trypsin-EDTA, containing 0.05% trypsin and 0.53 mM EDTA was also purchased from Multicell; Wisent, Inc., St. Bruno, Quebec, Canada.\n(§2) Procedure: A total of 20,000 cells were plated in each well of 48 well-plates and incubated at 37° C. in 5% CO2. After 48 h, the cells were treated with various concentrations of drugs. After 72 h of treatment, the cell viability was determined by alamar blue assay."}, "[2]": {"test_system": "KHOS osteosarcoma cell line", "type": "cell-based", "procedure": "as §1, §2"}, "[3]": {"test_system": "Rh30 rhabdomyosarcoma cell line", "type": "cell-based", "procedure": "as §1, §2"}, "[4]": {"test": "Pharmacokinetics of topotecan and pazopanib in non-tumor bearing animals", "type": "in vivo, mice", "procedure": "Non-tumor bearing animals were randomized into four groups (n=3): Control, PZ, TP and TP+PZ. The doses of the drugs were the same as for the inguinal xenograft and metastatic models described above.\nAfter single drug administration, the saphenous vein blood samples (30 μl) were collected in heparinized microcentrifuge tubes at 30 min, 1 h, 2 h, 4 h, 8 h, 12 h, 18 h and 24 h as per the Lab Animal Services protocol. Plasma was immediately isolated after blood collection by centrifugation. For the topotecan assay, 10 μl plasma was immediately precipitated with 20 μl methanol and centrifuged. The supernatant and rest of the plasma were stored at […] until analysis.\n30 μl of supernatant was injected into the HPLC system, which consisted of Phenomenox C18 (Luna; 150×4.6 mm; particle size 5 microns) column, UV detector (267 nm). The mobile phase was 50:50 mixture of 10 mM potassium phosphate and methanol, with flow rate 1.0 ml/min. The calibration standards were 5, 10, 50, 100 and 200 μg/ml.\nAssay of topotecan: Prior to analysis, the previously prepared 20 μl methanolic extract was mixed with 50 μl of internal standard solution (5 ng/ml d6 topotecan dissolved 1% formic acid in acetonitrile). The mixture was then centrifuged and the supernatant was transferred to auto-sampler vials.\nThe LC/MS system consisted of an HPLC (Agilent Infinity 1290), Column (Kinetex HILIC, 2.6u, 100A, 50×4.6 mm) and a mass spectrometer (Sciex 5500-QTrap). The analytes were eluted by gradient flow. Mobile phase A was water:actonitrile (10:90) and mobile phase B was 10 mM ammonium acetate (pH 3.2). The mobile phase ratio was 5% A for 0-2 min, 20% A for 4-6 min and 5% A for 8-10 min at a flow rate 0.5 ml/min. The samples were analyzed by positive ion electrospray ionization technique in multiple reaction monitoring modes. The following mass transitions were monitored: 422.2 to 377 m/z, (topotecan M+H) and 428.2 to 377 m/z (topotecan d6 M+H). The calibration standard range was 0.5 ng/ml to 10 ng/ml."}, "[5]": {"test_system": "SK-N-BE(2) neuroblastoma cell line", "test": "In-vitro cytotoxicity, Alamar Blue cell viability", "type": "cell-based", "conditions": "for IC50: Homo sapiens, SKNBE2, 72 h", "source_text": "(§3) SK-N-BE(2) (MYCN amplified) and SH-SY5Y (non-MYCN amplified neuroblastoma cell lines) were obtained from American Type Culture Collection (ATCC) (Manassas, Va.); BE(2)-c sub-clone of SK-N-BE(2) was obtained from Dr. Michelle Haber (Children's Cancer Institute for Medical Research, Lowry Cancer Research Centre, Randwick, Australia); Human Umbilical Vein Endothelial Cells (HUVECs) were obtained from Dr. Herman Yeger (The Hospital for Sick Children, Toronto, Ontario, Canada) and Tumor Initiating (TIC) cell lines NB12 and NB88, were obtained from Dr. David Kaplan (The Hospital for Sick Children, Toronto, Ontario, Canada). TICs NB12 and NB88 were isolated from the bone marrow metastases of relapsed high-risk neuroblastoma patients. Neuroblastoma cell lines SK-N-BE(2) and SH-SY5Y were grown in alpha-MEM containing 10% fetal bovine serum and 1% antibiotic mixture in humidified atmosphere at 37° C. with 5% CO2. NB12 and NB 88 were cultured as described previously.\n(§4) Cell viability was determined by Alamar Blue assay. Alamar blue (10% of total volume was added to each well three hours prior to fluorometric detection). Fluorometric detection was performed using the SPECTRAmax gemini Spectrophotometer at excitation wavelength of 540 nm and emission wavelength of 590 nm."}, "[6]": {"test_system": "SH-SY5Y neuroblastoma cell line", "test": "In-vitro cytotoxicity, Alamar Blue cell viability", "type": "cell-based", "conditions": "72 h", "source_text": "as §3, §4"}, "NB12 xenograft": {"test_system": "NB12 xenograft", "test": "NB12 TIC xenograft model", "type": "in vivo, NOD/SCID mice", "conditions": "for tumor growth compared to control: daily oral gavage, TP 1.0 mg/Kg, PZ 150 mg/Kg, TP+PZ both", "procedure": "(§5) 1×10^6 SK-N-BE(2) cells or 30,000 NB12 cells were implanted subcutaneously into the inguinal fat pad of each of non-obese diabetic/severe combined immune deficient (NOD/SCID) mice. […] The criteria for end point were tumor sizes exceeding 2.0 cms in diameter or animals showing signs of morbidity. The tumor sizes were measured on a daily basis until the end point or sacrifice. The long (D) and short diameters (d) were measured with calipers. Tumor volume (cm^3) was calculated as V=0.5×D×d^2. When end point was reached, the animals were sacrificed by cervical dislocation. Tumors were excised and were fixed in 10% formalin solution."}, "KHOS xenograft": {"test_system": "KHOS xenograft", "test": "KHOS osteosarcoma mouse xenograft model", "type": "in vivo, NOD/SCID mice"}, "Rh30 xenograft": {"test_system": "Rh30 xenograft", "test": "RH30 rhabdomyosarcoma mouse xenograft model", "conditions": "for tumor growth rate: daily oral up to 56 days, pazopanib 150 mg/Kg, LDM topotecan 1.0 mg/kg, combination both"}, "SK-N-BE(2) xenograft": {"test_system": "SK-N-BE(2) xenograft", "test": "SK-N-BE(2) neuroblastoma xenograft model", "type": "in vivo, NOD/SCID mice", "conditions": "for survival compared to control: daily oral gavage 56 days, TP 1.0 mg/Kg topotecan, PZ 150 mg/Kg pazopanib, TP+PZ both", "procedure": "as §5\nIn the group of animals implanted with SK-N-BE(2) cells palpable tumors started appearing approximately two weeks after cell implantation and took an additional week to reach 0.5 cm in diameter, after which the treatment was started. The effect of treatment was assessed by measuring regression of tumors and by survival times. Drugs were administered daily over a period of 56 days, and the animals belonging to the TP+PZ group were also retreated from the 103rd day to evaluate the impact of resuming treatment on reversing drug resistance. Retreatment was continued until the 125th day, after which the mice were sacrificed."}}, "note": "Read-outs that look alike come from different tables or passages of the source.", "data": [{"compound": "CC[C@@]1(O)C(=O)OCc2c1cc1n(c2=O)Cc2cc3c(CN(C)C)c(O)ccc3nc2-1", "note": "[topotecan]", "values": [{"measurement": "cell viability / cytotoxicity", "setting": "[1]; 72 h treatment", "result": "dose-dependent reduction"}, {"measurement": "cell viability / cytotoxicity", "setting": "[2]; 72 h treatment", "result": "dose-dependent reduction"}, {"measurement": "cell viability / cytotoxicity", "setting": "[3]; 72 h treatment", "result": "dose-dependent reduction"}, {"measurement": "trough concentration of topotecan", "setting": "[4]; TP group", "result": 0.77, "unit": "ng/mL"}, {"measurement": "peak plasma concentration of topotecan", "setting": "[4]; TP group, single oral 1.0 mg/Kg topotecan", "result": 19.75, "unit": "ng/mL"}, {"measurement": "peak plasma concentration of topotecan", "setting": "[4]; TP+PZ group", "result": 33.05, "unit": "ng/mL"}, {"measurement": "trough concentration of topotecan", "setting": "[4]; TP+PZ group", "result": 2.79, "unit": "ng/mL"}, {"measurement": "IC50", "setting": "[5]; topotecan alone", "result": 0.065, "unit": "µg/mL"}, {"measurement": "IC50", "setting": "[5]; topotecan with addition of 5000 ng/ml pazopanib, P=0.046", "result": 0.0351, "unit": "µg/mL"}, {"measurement": "IC50", "setting": "[6]; Homo sapiens, SH-SY5Y, topotecan alone", "result": 5.3, "unit": "ng/mL"}, {"measurement": "survival compared to control and PZ groups", "setting": "NB12 xenograft; daily oral gavage until day 83, P<0.005", "result": "significantly enhanced"}, {"measurement": "tumor growth compared to control", "setting": "NB12 xenograft", "result": "significantly reduced"}, {"measurement": "tumor growth rate", "setting": "KHOS xenograft; 27 days daily oral, LDM topotecan 1.0 mg/kg, combination 1.0 mg/Kg topotecan and 150 mg/Kg pazopanib", "result": "delayed the tumor growth rate"}, {"measurement": "tumor growth rate", "setting": "KHOS xenograft; Pulse topotecan 15 mg/Kg, 27 days", "result": "delayed the tumor growth rate"}, {"measurement": "tumor weights, Pulse versus LDM topotecan", "setting": "KHOS xenograft; after 27 days treatment", "result": "No significant differences"}, {"measurement": "efficacy relative to PZ, TP+PZ and intermittent dosing", "setting": "Rh30 xenograft; LDM topotecan 1.0 mg/kg daily oral", "result": "less effective"}, {"measurement": "tumor growth rate", "setting": "Rh30 xenograft", "result": "delayed the tumor growth rate"}, {"measurement": "tumor growth rate, TP versus PZ group", "setting": "SK-N-BE(2) xenograft; TP 1.0 mg/Kg vs PZ 150 mg/Kg, daily oral", "result": "No significant difference"}, {"measurement": "survival compared to control", "setting": "SK-N-BE(2) xenograft", "result": "significantly enhanced survival"}]}, {"compound": "Cc1ccc(Nc2nccc(N(C)c3ccc4c(C)n(C)nc4c3)n2)cc1S(N)(=O)=O", "note": "[pazopanib, 5-[[4-[(2,3-dimethyl-2H-indazol-6-yl)methylamino]-2-pyrimidinyl]amino]-2-methylbenzenesulfonamide]", "values": [{"measurement": "cell viability / cytotoxicity", "setting": "[1]", "result": "did not show cytotoxicity"}, {"measurement": "cell viability / cytotoxicity", "setting": "[2]", "result": "did not show cytotoxicity"}, {"measurement": "cell viability / cytotoxicity", "setting": "[3]", "result": "did not show cytotoxicity"}, {"measurement": "time optimal plasma concentration of pazopanib was maintained", "setting": "[4]; PZ group", "result": "at least 18 h"}, {"measurement": "time to peak plasma concentration of pazopanib", "setting": "[4]; PZ group, single oral 150 mg/Kg pazopanib", "result": 2, "unit": "h"}, {"measurement": "time optimal plasma concentration of pazopanib was maintained", "setting": "[4]; TP+PZ group", "result": "at least 18 h"}, {"measurement": "time to peak plasma concentration of pazopanib", "setting": "[4]; TP+PZ group, single oral 150 mg/Kg pazopanib+1.0 mg/Kg topotecan", "result": 2, "unit": "h"}, {"measurement": "viability of SK-N-BE(2)", "setting": "[5]; up to 5000 ng/ml, 72 h", "result": "did not affect the viabilities"}, {"measurement": "viability of SH-SY5Y", "setting": "[6]; up to 5000 ng/ml", "result": "did not affect the viabilities"}, {"measurement": "tumor growth compared to control", "setting": "NB12 xenograft", "result": "No significant difference"}, {"measurement": "tumor growth rate", "setting": "Rh30 xenograft", "result": "delayed the tumor growth rate"}, {"measurement": "survival compared to control", "setting": "SK-N-BE(2) xenograft", "result": "significantly enhanced survival"}]}]}
